Laboratory results reported in PubChem BioAssay (NCI).
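The concentration for 50% growth inhibition is given as GI50. TGI marks complete inhibition of growth.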

Tests used:
Assay in all cases: growth of human tumour cells (NCI), 384-well format
NCI-H322M lung = test system: NCI-H322M lung
SW-620 colon = test system: SW-620 colon
K-562 leukemia = test system: K-562 leukemia
BT-549 breast = test system: BT-549 breast
RPMI-8226 leukemia = test system: RPMI-8226 leukemia
U251 glioblastoma = test system: U251 glioblastoma
CCRF-CEM leukemia = test system: CCRF-CEM leukemia
UACC-62 melanoma = test system: UACC-62 melanoma
HCT-15 colon = test system: HCT-15 colon
MOLT-4 leukemia = test system: MOLT-4 leukemia
UO-31 renal = test system: UO-31 renal
HCC-2998 colon = test system: HCC-2998 colon
SK-MEL-28 melanoma = test system: SK-MEL-28 melanoma
SNB-19 CNS = test system: SNB-19 CNS
SK-MEL-5 melanoma = test system: SK-MEL-5 melanoma
UACC-257 melanoma = test system: UACC-257 melanoma
HOP-92 NSCLC = test system: HOP-92 NSCLC
HT29 colon = test system: HT29 colon
OVCAR-4 ovarian = test system: OVCAR-4 ovarian
MDA-MB-435 melanoma = test system: MDA-MB-435 melanoma
A549 NSCLC = test system: A549 NSCLC
KM12 colon = test system: KM12 colon
786-0 renal = test system: 786-0 renal
IGROV1 ovarian = test system: IGROV1 ovarian
SF-295 CNS = test system: SF-295 CNS
ACHN renal = test system: ACHN renal
NCI-H522 lung = test system: NCI-H522 lung
NCI-H23 lung = test system: NCI-H23 lung
NCI-H226 lung = test system: NCI-H226 lung

**Q.** Which GI50 (NCI-H322M lung) does the source give for `NC(=O)/C(=C/n1cnc(-c2cc(C(F)(F)F)cc(C(F)(F)F)c2)n1)c1cncnc1` here?
**A.** Its GI50 is 297 nM.

**Q.** And the TGI (NCI-H322M lung)?
**A.** Its TGI is 2900 nM.

**Q.** What about the GI50 (SW-620 colon) of the same compound?
**A.** The GI50 was 41 nM.

**Q.** What about the TGI (SW-620 colon) of the same compound?
**A.** Its TGI is 1410 nM.

**Q.** And the GI50 (K-562 leukemia)?
**A.** The GI50 was 37.2 nM.

**Q.** And the TGI (K-562 leukemia)?
**A.** Its TGI is 1030 nM.

**Q.** And the GI50 (BT-549 breast)?
**A.** Its GI50 is 12.1 nM.

**Q.** What about the TGI (BT-549 breast) of the same compound?
**A.** The TGI was 45.5 nM.

**Q.** And the TGI (RPMI-8226 leukemia)?
**A.** The TGI was 24.1 nM.

**Q.** And the GI50 (U251 glioblastoma)?
**A.** Its GI50 is 120 nM.

**Q.** And the TGI (U251 glioblastoma)?
**A.** Its TGI is 785 nM.

**Q.** What about the GI50 (CCRF-CEM leukemia) of the same compound?
**A.** The GI50 was 47.4 nM.

**Q.** What about the TGI (CCRF-CEM leukemia) of the same compound?
**A.** The TGI was 188 nM.

**Q.** And the GI50 (UACC-62 melanoma)?
**A.** The GI50 was 57.2 nM.

**Q.** What about the TGI (UACC-62 melanoma) of the same compound?
**A.** Its TGI is 241 nM.

**Q.** And the GI50 (HCT-15 colon)?
**A.** Its GI50 is 92.7 nM.

**Q.** What about the TGI (HCT-15 colon) of the same compound?
**A.** Its TGI is 1180 nM.

**Q.** What about the GI50 (MOLT-4 leukemia) of the same compound?
**A.** Its GI50 is 14.5 nM.

**Q.** What about the TGI (MOLT-4 leukemia) of the same compound?
**A.** The TGI was 28.2 nM.

**Q.** And the GI50 (UO-31 renal)?
**A.** The GI50 was 269 nM.

**Q.** And the TGI (UO-31 renal)?
**A.** The TGI was 1570 nM.

**Q.** What about the GI50 (HCC-2998 colon) of the same compound?
**A.** Its GI50 is 60.5 nM.

**Q.** And the TGI (HCC-2998 colon)?
**A.** The TGI was 287 nM.

**Q.** And the GI50 (SK-MEL-28 melanoma)?
**A.** Its GI50 is 106 nM.

**Q.** And the TGI (SK-MEL-28 melanoma)?
**A.** Its TGI is 372 nM.

**Q.** What about the GI50 (SNB-19 CNS) of the same compound?
**A.** Its GI50 is 188 nM.

**Q.** And the TGI (SNB-19 CNS)?
**A.** The TGI was 1880 nM.

**Q.** What about the GI50 (SK-MEL-5 melanoma) of the same compound?
**A.** Its GI50 is 192 nM.

**Q.** What about the TGI (SK-MEL-5 melanoma) of the same compound?
**A.** Its TGI is 1190 nM.

**Q.** What about the GI50 (UACC-257 melanoma) of the same compound?
**A.** Its GI50 is 591 nM.

**Q.** What about the TGI (UACC-257 melanoma) of the same compound?
**A.** Its TGI is 2120 nM.

**Q.** What about the GI50 (HOP-92 NSCLC) of the same compound?
**A.** The GI50 was 438 nM.

**Q.** What about the TGI (HOP-92 NSCLC) of the same compound?
**A.** Its TGI is 2060 nM.

**Q.** What about the GI50 (HT29 colon) of the same compound?
**A.** Its GI50 is 65.6 nM.

**Q.** What about the TGI (HT29 colon) of the same compound?
**A.** Its TGI is 943 nM.

**Q.** What about the GI50 (OVCAR-4 ovarian) of the same compound?
**A.** The GI50 was 249 nM.

**Q.** What about the TGI (OVCAR-4 ovarian) of the same compound?
**A.** Its TGI is 780 nM.

**Q.** What about the GI50 (MDA-MB-435 melanoma) of the same compound?
**A.** The GI50 was 40.9 nM.

**Q.** What about the TGI (MDA-MB-435 melanoma) of the same compound?
**A.** The TGI was 170 nM.

**Q.** What about the GI50 (A549 NSCLC) of the same compound?
**A.** Its GI50 is 196 nM.

**Q.** What about the TGI (A549 NSCLC) of the same compound?
**A.** Its TGI is 1640 nM.

**Q.** What about the GI50 (KM12 colon) of the same compound?
**A.** Its GI50 is 191 nM.

**Q.** And the TGI (KM12 colon)?
**A.** Its TGI is 1930 nM.

**Q.** And the GI50 ([…]-0 renal)?
**A.** Its GI50 is 50.4 nM.

**Q.** What about the TGI (786-0 renal) of the same compound?
**A.** The TGI was 1220 nM.

**Q.** And the GI50 (IGROV1 ovarian)?
**A.** Its GI50 is 296 nM.

**Q.** And the TGI (IGROV1 ovarian)?
**A.** The TGI was 2130 nM.

**Q.** And the GI50 (SF-295 CNS)?
**A.** The GI50 was 327 nM.

**Q.** What about the TGI (SF-295 CNS) of the same compound?
**A.** Its TGI is 2690 nM.

**Q.** And the GI50 (ACHN renal)?
**A.** Its GI50 is 329 nM.

**Q.** What about the TGI (ACHN renal) of the same compound?
**A.** Its TGI is 2670 nM.

**Q.** And the GI50 (NCI-H522 lung)?
**A.** Its GI50 is 24.9 nM.

**Q.** And the TGI (NCI-H522 lung)?
**A.** The TGI was 184 nM.

**Q.** And the GI50 (NCI-H23 lung)?
**A.** The GI50 was 71.3 nM.

**Q.** What about the TGI (NCI-H23 lung) of the same compound?
**A.** Its TGI is 1120 nM.

**Q.** And the GI50 (NCI-H226 lung)?
**A.** The GI50 was 31.6 nM.

**Q.** And the TGI (NCI-H226 lung)?
**A.** Its TGI is 400 nM.
